Laboratory results: patent US20100197714A1, “SPIRO-PYRANO-PYRAZOLE DERIVATIVES” (priority 2007, published 2010)
pKi: −log10 of the molar value.

How the values were obtained:
σ2-receptor = target: T1, σ2-receptor (Rattus norvegicus, UniProt Q5U3Y7); experiment: Sigma 2 (Version B) radioligand binding, [3H]-ditolylguanidine, rat liver preparation, σ1 sites masked with (+)-pentazocine; conditions: for inhibition at 1 µM: compound at 1 μM; for pKi: [3H]-ditolylguanidine 3 nM
T1 construct: the σ2-Receptorpreparation was prepared from rat liver; from tissue; host or cells: rat liver membrane homogenate
T1 sequence (Q5U3Y7 1-176): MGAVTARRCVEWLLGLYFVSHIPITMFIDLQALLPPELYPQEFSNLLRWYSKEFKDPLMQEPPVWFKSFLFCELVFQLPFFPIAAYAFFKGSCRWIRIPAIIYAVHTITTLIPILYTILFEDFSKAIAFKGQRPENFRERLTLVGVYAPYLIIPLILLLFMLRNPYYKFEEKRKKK
Procedure: In brief the σ2-Receptorpreparation was prepared from rat liver. The livers were homogenized in 5 to 6 times of volume sucrose solution (0.32M) and homogenized. The homogenate was centrifuged at 2900 rpm, 4° C., 10 min). the supernatant was centrifuged again (31000×g, 4° C., 20 min). The pellet was resuspended in TRIS-buffer, incubated for 30 min at room temperature while stirring and centrifuged f (31000×g, 4° C., 20 min). The pellet was resuspended in cold TRIS-buffer pH 8 and homogenized. Then the protein content was measured (approx. 2 mg/mL) and the homogenate frozen at −80° C. for later use.
The radioligand used was [^3H]-Ditolylguanidin in TRIS-buffer pH 8. The σ1-receptor binding sites were masked through (+)-Pentazocin-solution in TRIS-Puffer pH 8.
In a volume of 200 μL 50 μL compound solution of varying concentration, 50 μL (+)-Pentazocin-solution (2 μM; resulting in 500 nM in the assay), 50 μL radioligand-solution (12 nM; resulting in 3 nM in the assay) and finally 50 μL of receptor preparation (approx. 2 mg/mL) were given into a well of a microplate equipped with a filter. The plate was closed and stirred for 2 h at room temperature and 500 rpm. Following that the solvents were removed by a harvester through the filter. After rinsing with H2O the filter was measured in a scintillation counter ([^3H]-protocol).

σ1-receptor [1] = target: T2, σ1-receptor (Cavia porcellus, UniProt Q60492); experiment: Sigma 1 (Version B) radioligand binding, [3H]-(+)-pentazocine, guinea pig brain preparation; set-up: the σ1-receptor preparation was prepared from guinea pig brain; from tissue; host or cells: guinea pig brain membrane homogenate
T2 sequence (Q60492 whole entry): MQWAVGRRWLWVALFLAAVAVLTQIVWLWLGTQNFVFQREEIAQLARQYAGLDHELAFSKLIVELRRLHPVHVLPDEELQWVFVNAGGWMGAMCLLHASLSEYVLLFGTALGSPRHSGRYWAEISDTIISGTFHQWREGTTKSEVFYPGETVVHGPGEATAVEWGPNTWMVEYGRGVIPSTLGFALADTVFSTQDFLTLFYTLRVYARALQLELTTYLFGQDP
Procedure: In brief the σ1-receptor preparation was prepared from guinea pig brain. The brains were homogenized in 5 to 6 times of volume sucrose solution (0.32M) and homogenized. The homogenate was centrifuged at 2900 rpm, 4° C., 10 min). the supernatant was centrifuged again (23500×g, 4° C., 20 min). The pellet was resuspended in Tris-buffer, incubated for 30 min at room temperature and centrifuged f (23500×g, 4° C., 20 min). The pellet was resuspended in cold TRIS-buffer and homogenized. Then the protein content was measured (approx. 1.5 mg/mL) and the homogenate frozen at −80° C. for later use.
The radioligand used was […]-(+)-Pentazocin in TRIS-buffer. In a volume of 200 μL 50 μL TRIS-buffer, 50 μL compound solution of varying concentration, 50 μL radioligand-solution (8 nM; resulting in 2 nM in the assay) and finally 50 μL of receptor preparation (approx. 1.5 mg/mL) were given into a well of a microplate equipped with a filter. The plate was closed and stirred for 2.5 h at 37° C. and 500 rpm. Following that the solvents were removed by a harvester through the filter. After rinsing with H2O the filter was measured in a scintillation counter ([^3H]-protocol).

σ1-receptor [2] = target: T2, σ1-receptor; experiment: Sigma-1 (Version A) radioligand binding, [3H](+)-pentazocine, guinea pig brain membranes
Procedure: Brain membrane preparation and binding assays for the σ1-receptor were performed as described (DeHaven-Hudkins et al., 1992) with some modifications. In brief, guinea pig brains were homogenized in 10 vols. […] The homogenate was centrifuged at 1000 g for 10 min at 4° C. and the supernatants collected and centrifuged again at 48000 g for 15 min at 4° C.
Each assay tube contained 10 μL of [^3H](+)-pentazocine (final concentration of 0.5 nM), 900 μL of the tissue suspension to a final assay volume of 1 mL and a final tissue concentration of approximately 30 mg tissue net weight/mL. […] All tubes were incubated at 37° C. for 150 min before termination of the reaction by rapid filtration over Schleicher & Schuell GF 3362 glass fibre filters [previously soaked in a solution of 0.5% polyethylenimine for at least 1 h]. […] Following addition of scintillation cocktail, the samples were allowed to equilibrate overnight. The amount of bound radioactivity was determined by liquid scintillation spectrometry using a Wallac Winspectral 1414 liquid scintillation counter.

[3] = version B, guinea pig brain, [3H]-(+)-pentazocine 2 nM, read-out: Binding σ1 Ki

SMILES | inhibition at 1 µM (σ2-receptor) [%] | pKi (σ1-receptor [1]; [3]) | pKi (σ2-receptor) | pKi (σ1-receptor [2]) | pKi (σ1-receptor [1])
COC1OC2(CCNCC2)c2cnn(-c3ccccc3)c21 (stereo not drawn) [Example 2, 6′-Methoxy-1′-phenyl-4′,6′-dihydro-1′H-spiro[piperidin-4,4′-furo[3,4-c]pyrazole]] | 12 | 5.92 |  |  | 
COC1OC2(CCN(Cc3ccccc3)CC2)c2cnn(-c3ccccc3)c21 (stereo not drawn) [Example 3, 1-Benzyl-6′-methoxy-1′-phenyl-4′,6′-dihydro-1′H-spiro[piperidin-4,4′-furo[3,4-c]pyrazole]] |  |  | 5.76 | 8.57 | 
CCCCN1CCC2(CC1)OC(OC)c1c2cnn1-c1ccccc1 (stereo not drawn) [Example 4, 1-Butyl-6′-methoxy-1′-phenyl-4′,6′-dihydro-1′H-spiro[piperidin-4,4′-furo[3,4-c]pyrazole]] |  | 8.89 | 5.98 | 8.92 | 
COC1Cc2c(cnn2-c2ccccc2)C2(CCN(Cc3ccccc3)CC2)O1 (stereo not drawn) [Example 5, 1-Benzyl-6′-methoxy-1′-phenyl-6′,7′-dihydro-1′H-spiro[piperidin-4,4′-pyrano[4,3-c]pyrazole]] | 22 |  |  |  | 8.84
CCCN1CCC2(CC1)OC(OC)Cc1c2cnn1-c1ccccc1 (stereo not drawn) [Example 7, 6′-Methoxy-1′-phenyl-1-propyl-6′,7′-dihydro-1′H-spiro[piperidin-4,4′-pyrano[4,3-c]pyrazole]] |  |  | 5.52 |  | 
COC1Cc2c(cnn2-c2ccccc2)C2(CCN(C(C)C)CC2)O1 (stereo not drawn) [Example 8, 1-Isopropyl-6′-methoxy-1′-phenyl-6′,7′-dihydro-1′H-spiro[piperidin-4,4′ pyrano[4,3-c]pyrazole]] |  |  | 5.49 | < 7.00 | 
CCCCN1CCC2(CC1)OC(OC)Cc1c2cnn1-c1ccccc1 (stereo not drawn) [Example 9, 1-Butyl-6′-methoxy-1′-phenyl-6′,7′-dihydro-1′H-spiro[piperidin-4,4′-pyrano[4,3-c]pyrazole]] |  |  | 6.12 |  | 8.09
COC1Cc2c(cnn2-c2ccccc2)C2(CCN(CC(C)C)CC2)O1 (stereo not drawn) [Example 10, 1-Isobutyl-6′-methoxy-1′-phenyl-6′,7′-dihydro-1′H-spiro[piperidin-4,4′-pyrano[4,3-c]pyrazole]] |  |  | 6.03 | 8.03 | 
CCCCCN1CCC2(CC1)OC(OC)Cc1c2cnn1-c1ccccc1 (stereo not drawn) [Example 11, 6′-Methoxy-1-pentyl-1′-phenyl-6′,7′-dihydro-1′H-spiro[piperidin-4,4′-pyrano[4,3-c]pyrazole]] |  |  | 6.47 |  | 9.09
COC1Cc2c(cnn2-c2ccccc2)C2(CCN(CCc3ccccc3)CC2)O1 (stereo not drawn) [Example 16, 6′-Methoxy-1′-phenyl-1-(2-phenylethyl)-6′,7′-dihydro-1′H-spiro[piperidin-4,4′-pyrano[4,3-c]pyrazole]] |  |  | 6.24 |  | 8.56
COC1Cc2c(cnn2-c2ccccc2)C2(CCN(CCCc3ccccc3)CC2)O1 (stereo not drawn) [Example 17, 6′-Methoxy-1′-phenyl-1-(3-phenylpropyl)-6′,7′-dihydro-1′H-spiro[piperidin-4,4′-pyrano[4,3-c]pyrazole]] |  |  | 6.08 |  | 8.49
COc1ccc(CN2CCC3(CC2)OC(OC)Cc2c3cnn2-c2ccccc2)cc1 (stereo not drawn) [Example 20, 6′-Methoxy-1-(4-methoxybenzyl)-1′-phenyl-6′,7′-dihydro-1′H-spiro[piperidin-4,4′-pyrano[4,3-c]pyrazole]] |  |  | 6.03 |  | 8.81
COC1Cc2c(cnn2C)C2(CCN(Cc3ccccc3)CC2)O1 (stereo not drawn) [Example 22, 1-Benzyl-6′-methoxy-1′-methyl-6′,7′-dihydro-1′H-spiro[piperidin-4,4′-pyrano[4,3-c]pyrazole]] | 0 |  |  |  | 7.67
COC1Cc2c(cnn2C)C2(CCN(CCCc3ccccc3)CC2)O1 (stereo not drawn) [Example 24, 6′-Methoxy-1′-methyl-1-(3-phenylpropyl)-6′,7′-dihydro-1′H-spiro[piperidin-4,4′-pyrano[4,3-c]pyrazole]] |  |  | 5.76 |  | 7.03
COC1Cc2c(cnn2C)C2(CCN(Cc3ccc(F)cc3)CC2)O1 (stereo not drawn) [Example 25, 1-(4-Fluorbenzyl)-6′-methoxy-1′-methyl-6′,7′-dihydro-1′H-spiro[piperidin-4,4′-pyrano[4,3-c]pyrazole]] | 46 |  |  |  | 7.68
COC1Cc2c(cnn2C)C2(CCN(CCC(C)C)CC2)O1 (stereo not drawn) [Example 26, 1-Isopentyl-6′-methoxy-1′-methyl-6′,7′-dihydro-1′H-spiro[piperidin-4,4′-pyrano[4,3-c]pyrazole]] | 22 |  |  |  | 7.75
CCCN1CCC2(CC1)OC(OC)Cc1c2cnn1C (stereo not drawn) [Example 27, 6′-Methoxy-1′-methyl-1-propyl-6′,7′-dihydro-1′H-spiro[piperidin-4,4′-pyrano[4,3-c]pyrazole]] | 0 |  |  |  | 
Cn1ncc2c1CC(O)OC21CCN(Cc2ccccc2)CC1 (stereo not drawn) [Example 28, 1-Benzyl-1′-methyl-6′,7′-dihydro-1′H-spiro[piperidin-4,4′-pyrano[4,3-c]pyrazole]-6′-ol] | 21 |  |  |  | 6.72
Cn1ncc2c1C=COC21CCN(Cc2ccccc2)CC1 [Example 29, 1-Benzyl-1′-methyl-1′H-spiro[piperidin-4,4′-pyrano[4,3-c]pyrazole]] |  |  | 6.37 |  | 7.93
Cn1ncc2c1CCOC21CCN(Cc2ccccc2)CC1 [Example 30, 1-Benzyl-1′-methyl-6′,7′-dihydro-1′H-spiro[piperidin-4,4′-pyrano[4,3-c]pyrazole]] |  |  | 6.72 |  | 8.04
OC1Cc2c(cnn2-c2ccccc2)C2(CCN(Cc3ccccc3)CC2)O1 (stereo not drawn) [Example 32, 1-Benzyl-1′-phenyl-6′,7′-dihydro-1′H-spiro[piperidin-4,4′-pyrano[4,3-c]pyrazole]-6′-ol] | 41 |  |  |  | 7.57
C1=Cc2c(cnn2-c2ccccc2)C2(CCN(Cc3ccccc3)CC2)O1 [Example 33, 1-Benzyl-1′-phenyl-1′H-spiro[piperidin-4,4′-pyrano[4,3-c]pyrazole]] |  |  | 6.25 |  | 8.83
c1ccc(CN2CCC3(CC2)OCCc2c3cnn2-c2ccccc2)cc1 [Example 34, 1-Benzyl-1′-phenyl-6′,7′-dihydro-1′H-spiro[piperidin-4,4′-pyrano[4,3-c]pyrazole]] |  |  | 6.11 |  | 8.77
CC(C)CCN1CCC2(CC1)OCCc1c2cnn1-c1ccccc1 [Example 35, 1-Isopentyl-1′-phenyl-6′,7′-dihydro-1′H-spiro[piperidin-4,4′-pyrano[4,3-c]pyrazole]] |  | 9.01 | 7.08 |  | 
CC(C)=CCN1CCC2(CC1)OCCc1c2cnn1-c1ccccc1 [Example 36, 1-(Methylbut-2-en-1-yl)-1′-phenyl-6′,7′-dihydro-1′H-spiro[piperidin-4,4′-pyrano[4,3-c]pyrazole]] |  |  | 6.57 |  | 9.01
c1ccc(CCCN2CCC3(CC2)OCCc2c3cnn2-c2ccccc2)cc1 [Example 37, 1-Phenylpropyl-1′-phenyl-6′,7′-dihydro-1′H-spiro[piperidin-4,4′-pyrano[4,3-c]pyrazole]] |  |  | 6.99 |  | 
c1ccc(-n2ncc3c2CCOC32CCN(CC3CCCCC3)CC2)cc1 [Example 38, 1-(Cyclohexan-1-ylmethyl)-1-phenyl-6′,7′-dihydro-1′H-spiro[piperidin-4,4′-pyrano[4,3-c]pyrazole]] |  | 9.37 | 7.37 |  | 
CC(C)CCN1CCC2(CC1)OCCc1c2cnn1C [Example 39, 1-Isopentyl-1′-methyl-6′,7′-dihydro-1′H-spiro[piperidin-4,4′-pyrano[4,3-c]pyrazole]] | 27 | 7.52 |  |  | 
CC(C)=CCN1CCC2(CC1)OCCc1c2cnn1C [Example 40, 1-(Methylbut-2-en-1-yl)-1′-methyl-6′,7′-dihydro-1′H-spiro[piperidin-4,4′-pyrano[4,3-c]pyrazole]] | 49 |  |  |  | 
Cn1ncc2c1CCOC21CCN(CCCc2ccccc2)CC1 [Example 41] |  | 7.76 | 5.97 |  | 
